This note sets out measurements from patent US10072006B2 (MUTABILIS, priority 2015, dated 2018).

Assay type in all cases: cell-based
For test [1], the system named is E. coli 190317 (TEM-1, SHV-12, CTX-M-15, OXA-1). Description: microbe, parasite or virus in culture. The method, then:
(§1) Briefly, compounds alone according to the invention were prepared in DMSO and spotted (2 μL each) on sterile polystyrene plates (Corning, 3788). […] Microplates were incubated for 16-20 h at 35° C. in ambient air. The MIC of the compounds was defined as the lowest concentration of said compounds that prevented bacterial growth as read by visual inspection.

In test [2] the test system is K. pneumoniae 6299 (TEM-1, SHV-11, OXA-163). Description: MIC of compounds and synergy with ceftazidime (broth microdilution). The conditions noted are these: for MIC, combination of CAZ and compounds of the invention: MIC of ceftazidime with compound fixed at 4 μg/mL; for MIC: Klebsiella pneumoniae. The method, then:
as §1
A general note: In broth dilution the organism is exposed to a series of concentrations in liquid medium.

The test system of test [3] is E. coli 131119 (TEM-1, OXA-48). The description is as above. To be noted: for MIC: Escherichia coli. The method, then:
as §1

In test [4] the test system is K. pneumoniae BAA-1898 (TEM-1, SHV-11, SHV-12, KPC-2). The description is as above. The conditions noted are these: for MIC, combination of CAZ and compounds of the invention: MIC of ceftazidime with compound fixed at 4 μg/mL; for MIC: Klebsiella pneumoniae. The method, then: as §1
The subject of a further test is E. coli RGN238 (OXA-1). The description is as above. The conditions noted are these: for MIC: Escherichia coli. The method, then: as §1
Test [5] relates to E. cloacae P99 (Derepressed ampC). Described as above. To be noted: strain P99 (E. cloacae); for MIC, combination of CAZ and compounds of the invention: MIC of ceftazidime with compound fixed at 4 μg/mL. The method, then: as §1
Test [6] relates to P. aeruginosa CIP107051 (TEM-24). Described as above. To be noted: for MIC, combination of CAZ and compounds of the invention: MIC of ceftazidime with compound fixed at 4 μg/mL; for MIC: Pseudomonas aeruginosa. The procedure: as §1
Test [7] has as its system P. aeruginosa CIP105250 (OXA-15). The description is as above. To be noted: for MIC, combination of CAZ and compounds of the invention: MIC of ceftazidime with compound fixed at 4 μg/mL; for MIC: Pseudomonas aeruginosa. The procedure: as §1
Test [8] concerns P. aeruginosa UFR35 (OXA-23). Described as above. To be noted: Pseudomonas aeruginosa, read-out: MIC of CAZ. The method, then:
as §1

Test [9] concerns P. aeruginosa UFR92 (Derepressed ampC, OprD-). The description is as above. The conditions noted are these: Pseudomonas aeruginosa, read-out: MIC of CAZ. The procedure:
as §1

Test [10] has as its system P. aeruginosa UFR90 (Derepressed ampC, OprD-). The description is as above. The conditions noted are these: Pseudomonas aeruginosa, read-out: MIC of CAZ. The procedure:
as §1

Test [11] deals with K. pneumoniae UFR77 (CMY-2). The description is as above. The conditions noted are these: Klebsiella pneumoniae, read-out: MIC of CAZ. The procedure:
as §1

Test [12] relates to E. coli UFR74 (SHV-1, DHA-1). The description is as above. To be noted: Escherichia coli, read-out: MIC of CAZ. The method, then: as §1
The test system of test [13] is P. aeruginosa UFR48 (VIM-2). Described as above. The conditions noted are these: Pseudomonas aeruginosa, read-out: MIC of CAZ. The procedure:
as §1

Where [14] appears, read: strain BAA-1898 (K. pneumoniae).
[15] abbreviates: strain CIP107051 (P. aeruginosa).
Where [16] appears, read: strain CIP105250 (P. aeruginosa).

Structures can show the parent of a compound that is named as a salt. Where two headings read alike, the source gives them in different places. Bounds are passed on as bounds.

Turning to `COC[C@H]1C=C(c2cnco2)[C@@H]2CN1C(=O)N2OS(=O)(=O)[O-].[Na+]` (relative stereo) [Example 4], the “MIC, combination of CAZ and compounds of the invention” value amounted to 4 µg/mL in test [1] (MIC of ceftazidime with compound fixed at 4 μg/mL, strain 190317 (E. coli)); 128 µg/mL in test [2] (strain 6299 (K. pneumoniae)); 64 µg/mL in [4] (setting [14]); 64 µg/mL in [5]; 64 µg/mL in [6] (setting [15]); 128 µg/mL in test [7] (setting [16]). Moreover, the “MIC compounds of the invention alone” value (in test [1] (strain 190317 (E. coli)); in test [2] (strain 6299 (K. pneumoniae)); in [3] (strain 131119 (E. coli)); in [4] (setting [14]); in the test with E. coli RGN238 (OXA-1) (strain RGN238 (E. coli)); in test [5]) was more than 32 µg/mL throughout. Moreover, the “MIC compounds of the invention alone” value in [6] (setting [15]) and in test [7] (setting [16]) was more than 32 µg/mL throughout.
On to `CC(C)(O/N=C(\C(=O)N[C@@H]1C(=O)N2C(C(=O)[O-])=C(C[n+]3ccccc3)CS[C@H]12)c1csc(N)n1)C(=O)O` [CAZ, ceftazidime, reference compound], for which the MIC amounted to 256 µg/mL in [2] (read-out: MIC of CAZ); 0.5 µg/mL in test [3] (read-out: MIC of CAZ); 256 µg/mL in test [4] (BAA1898, read-out: MIC of CAZ); 2 µg/mL in [8]; 32 µg/mL in test [9]; 0.5 µg/mL in the test on E. coli RGN238 (OXA-1) (read-out: MIC of CAZ). Also, the MIC in [10] is 64 µg/mL; in [11], 64 µg/mL; in [6] (CIP107051, read-out: MIC of CAZ), 256 µg/mL; in test [7] (CIP105250, read-out: MIC of CAZ), 256 µg/mL; in test [12] it was 64 µg/mL; in test [13], 256 µg/mL.
Turning to `N=C(N)NC[C@@H]1C(c2nccs2)=C[C@@H]2CN1C(=O)N2OS(=O)(=O)O` [Example 7, [(2S,5R)-2-(guanidinomethyl)-7-oxo-3-thiazol-2-yl-1,6-diazabicyclo[3.2.1]oct-3-en-6-yl] hydrogen sulfate], the MIC is 0.063 µg/mL in test [1] (Escherichia coli, 18 h, read-out: MIC compounds of the invention alone); more than 32 µg/mL in test [2] (18 h, strain 6299 (K. pneumoniae), read-out: MIC compounds of the invention alone); 0.031 µg/mL in [3] (18 h, strain 131119 (E. coli), read-out: MIC compounds of the invention alone); more than 32 µg/mL in test [4] (BAA1898, strain BAA-1898 (K. pneumoniae), read-out: MIC compounds of the invention alone); 16 µg/mL in the test with E. coli RGN238 (OXA-1) (18 h, strain RGN238 (E. coli), read-out: MIC compounds of the invention alone); 0.031 µg/mL in test [5] (Enterobacter cloacae, 18 h, read-out: MIC compounds of the invention alone). The MIC in [6] (18 h, strain CIP107051 (P. aeruginosa), read-out: MIC compounds of the invention alone) was found to be 8 µg/mL; in [7] (18 h, strain CIP105250 (P. aeruginosa), read-out: MIC compounds of the invention alone), 32 µg/mL. Besides, the “MIC, combination of CAZ and compounds of the invention” value in test [2] (strain 6299 (K. pneumoniae)) was 2 µg/mL; in test [4] (setting [14]), not above 0.125 µg/mL; in [5] it was less than 0.125 µg/mL; in [6] (setting [15]), 1 µg/mL; in test [7] (setting [16]), 32 µg/mL.
